In ChEMBL document CHEMBL5465560, “Selectivity Literature for EUbOPEN Chemogenomic Library” (2024):

What was measured:
[1] = biological target: T1, Aurora kinase C (Homo sapiens) (UniProt Q9UQB9); conditions: at 10 µM
T1 sequence (whole entry): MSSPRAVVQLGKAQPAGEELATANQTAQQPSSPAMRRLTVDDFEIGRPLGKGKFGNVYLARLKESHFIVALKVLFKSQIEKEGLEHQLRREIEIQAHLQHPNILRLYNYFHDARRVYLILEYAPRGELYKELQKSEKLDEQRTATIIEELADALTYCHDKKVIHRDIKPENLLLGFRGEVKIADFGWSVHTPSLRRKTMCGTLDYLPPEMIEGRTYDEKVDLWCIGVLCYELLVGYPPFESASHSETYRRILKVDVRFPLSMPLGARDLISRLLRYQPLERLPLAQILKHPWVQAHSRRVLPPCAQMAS

[2] = biological target: Ephrin type-A receptor 5 (Homo sapiens) (UniProt P54756); assay: Selectivity interaction (Kinase panel (DSF assay)) EUB0001558a EPHA5
[3] = biological target: Ribosomal protein S6 kinase alpha-2 (Homo sapiens) (UniProt Q15349); assay: Selectivity interaction (KinomeScan (DiscoverX)) EUB0000666a RPS6KA2; conditions: at 10 µM
Ribosomal protein S6 kinase alpha-2 (Homo sapiens), sequence (Q15349 whole entry): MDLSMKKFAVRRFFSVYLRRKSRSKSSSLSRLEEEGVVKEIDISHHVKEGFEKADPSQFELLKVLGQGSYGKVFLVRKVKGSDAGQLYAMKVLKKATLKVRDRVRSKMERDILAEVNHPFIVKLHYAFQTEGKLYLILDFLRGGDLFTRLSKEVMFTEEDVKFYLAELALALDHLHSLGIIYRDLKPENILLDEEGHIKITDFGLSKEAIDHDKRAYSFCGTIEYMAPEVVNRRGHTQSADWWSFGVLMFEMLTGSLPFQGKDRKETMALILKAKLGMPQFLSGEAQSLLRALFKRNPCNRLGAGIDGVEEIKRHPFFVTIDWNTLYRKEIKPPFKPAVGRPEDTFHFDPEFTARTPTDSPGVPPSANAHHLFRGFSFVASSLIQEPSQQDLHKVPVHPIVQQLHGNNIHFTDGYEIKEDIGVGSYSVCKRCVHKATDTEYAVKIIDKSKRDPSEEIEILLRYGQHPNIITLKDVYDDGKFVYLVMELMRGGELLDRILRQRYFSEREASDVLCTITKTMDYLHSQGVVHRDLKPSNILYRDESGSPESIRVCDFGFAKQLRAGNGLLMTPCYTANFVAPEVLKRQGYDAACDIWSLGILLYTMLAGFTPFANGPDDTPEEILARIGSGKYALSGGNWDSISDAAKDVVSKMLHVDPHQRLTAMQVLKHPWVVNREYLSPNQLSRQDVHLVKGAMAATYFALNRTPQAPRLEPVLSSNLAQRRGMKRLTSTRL

[4] = biological target: Ribosomal protein S6 kinase beta-1 (Homo sapiens, UniProt P23443); assay: Selectivity interaction (Millipore kinase profiler) EUB0000124b RPS6KB1; conditions: at 10 µM
Ribosomal protein S6 kinase beta-1, sequence (P23443 whole entry, looked up): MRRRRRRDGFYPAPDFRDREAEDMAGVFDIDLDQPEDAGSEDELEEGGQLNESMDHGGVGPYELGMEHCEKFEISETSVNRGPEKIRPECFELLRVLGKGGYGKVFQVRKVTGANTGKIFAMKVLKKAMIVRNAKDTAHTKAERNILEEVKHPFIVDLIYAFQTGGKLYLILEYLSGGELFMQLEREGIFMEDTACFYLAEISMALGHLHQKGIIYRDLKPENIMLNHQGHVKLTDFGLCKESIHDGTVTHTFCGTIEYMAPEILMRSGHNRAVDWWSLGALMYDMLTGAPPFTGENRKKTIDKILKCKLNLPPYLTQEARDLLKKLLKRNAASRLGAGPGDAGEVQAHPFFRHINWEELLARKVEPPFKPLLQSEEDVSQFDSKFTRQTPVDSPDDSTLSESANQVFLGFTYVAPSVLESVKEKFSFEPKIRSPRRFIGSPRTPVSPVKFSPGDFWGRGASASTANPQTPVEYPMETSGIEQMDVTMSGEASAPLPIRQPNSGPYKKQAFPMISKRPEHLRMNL

[5] = biological target: T2, Tyrosine-protein kinase ZAP-70 (Homo sapiens, UniProt P43403)
T2 sequence (P43403 whole entry): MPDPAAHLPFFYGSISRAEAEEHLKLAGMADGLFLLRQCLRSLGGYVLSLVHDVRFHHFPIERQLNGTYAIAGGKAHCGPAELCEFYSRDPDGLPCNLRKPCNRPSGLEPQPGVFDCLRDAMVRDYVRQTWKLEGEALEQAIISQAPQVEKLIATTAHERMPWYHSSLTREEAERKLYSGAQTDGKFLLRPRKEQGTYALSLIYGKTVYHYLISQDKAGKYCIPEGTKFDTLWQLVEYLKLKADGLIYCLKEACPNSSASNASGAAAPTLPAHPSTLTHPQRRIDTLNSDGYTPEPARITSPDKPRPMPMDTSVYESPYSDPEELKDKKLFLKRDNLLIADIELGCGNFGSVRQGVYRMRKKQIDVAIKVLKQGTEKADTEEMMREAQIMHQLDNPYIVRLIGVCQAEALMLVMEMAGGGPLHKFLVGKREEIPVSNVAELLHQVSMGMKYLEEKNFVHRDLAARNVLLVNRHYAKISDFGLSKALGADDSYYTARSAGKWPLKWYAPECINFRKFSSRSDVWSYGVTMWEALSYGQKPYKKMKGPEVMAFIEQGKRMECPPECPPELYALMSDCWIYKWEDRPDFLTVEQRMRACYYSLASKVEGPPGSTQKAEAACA

[6] = biological target: Ribosomal protein S6 kinase alpha-2 (Homo sapiens) (UniProt Q15349); assay: Selectivity interaction (SelectScreen profiling (Invitrogen)) EUB0000607a RPS6KA2; conditions: at 2 µM
[7] = biological target: Homeodomain-interacting protein kinase 2 (Homo sapiens, UniProt Q9H2X6); assay: Selectivity interaction (KinomeScan (DiscoverX)) EUB0000695a HIPK2; conditions: at 100 nM
Homeodomain-interacting protein kinase 2, sequence (Q9H2X6 whole entry, looked up): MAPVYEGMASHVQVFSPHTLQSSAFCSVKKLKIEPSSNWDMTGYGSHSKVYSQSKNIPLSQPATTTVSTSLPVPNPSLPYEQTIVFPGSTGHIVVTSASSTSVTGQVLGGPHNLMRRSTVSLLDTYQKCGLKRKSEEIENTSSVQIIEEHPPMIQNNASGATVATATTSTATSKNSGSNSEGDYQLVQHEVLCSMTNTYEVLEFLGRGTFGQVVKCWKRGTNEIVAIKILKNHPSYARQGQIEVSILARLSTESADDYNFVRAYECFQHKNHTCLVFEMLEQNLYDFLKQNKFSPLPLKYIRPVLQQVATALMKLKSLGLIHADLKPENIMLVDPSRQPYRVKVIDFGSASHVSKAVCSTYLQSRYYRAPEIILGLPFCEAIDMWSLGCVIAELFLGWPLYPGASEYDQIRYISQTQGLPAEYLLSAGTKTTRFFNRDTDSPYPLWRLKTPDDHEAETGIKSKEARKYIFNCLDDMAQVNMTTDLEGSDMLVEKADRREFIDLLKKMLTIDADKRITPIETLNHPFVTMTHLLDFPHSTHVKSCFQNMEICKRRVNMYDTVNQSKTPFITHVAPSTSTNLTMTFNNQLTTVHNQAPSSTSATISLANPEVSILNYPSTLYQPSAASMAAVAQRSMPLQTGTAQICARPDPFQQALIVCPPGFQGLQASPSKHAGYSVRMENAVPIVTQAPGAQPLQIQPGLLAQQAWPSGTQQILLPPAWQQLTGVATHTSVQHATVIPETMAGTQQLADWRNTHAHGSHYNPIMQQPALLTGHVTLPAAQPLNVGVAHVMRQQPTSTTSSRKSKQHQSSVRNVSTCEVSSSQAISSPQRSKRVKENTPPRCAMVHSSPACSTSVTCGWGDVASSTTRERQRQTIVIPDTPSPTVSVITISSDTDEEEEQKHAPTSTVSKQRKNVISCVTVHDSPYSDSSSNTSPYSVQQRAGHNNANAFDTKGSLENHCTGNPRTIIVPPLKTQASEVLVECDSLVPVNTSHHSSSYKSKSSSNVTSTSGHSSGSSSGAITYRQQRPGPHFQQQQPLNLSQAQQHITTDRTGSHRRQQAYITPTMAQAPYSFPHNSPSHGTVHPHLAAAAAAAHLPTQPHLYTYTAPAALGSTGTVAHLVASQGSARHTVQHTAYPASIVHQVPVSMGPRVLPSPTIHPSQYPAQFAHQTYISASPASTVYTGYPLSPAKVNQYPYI

[8] = system: Tyrosine-protein kinase ABL1 (Homo sapiens), P00519 [F317L]; assay: Selectivity interaction (KinomeScan (DiscoverX)) EUB0000045b ABL1; conditions: at 1 µM
Tyrosine-protein kinase ABL1 (Homo sapiens), P00519 [F317L], sequence (P00519 whole entry F317L): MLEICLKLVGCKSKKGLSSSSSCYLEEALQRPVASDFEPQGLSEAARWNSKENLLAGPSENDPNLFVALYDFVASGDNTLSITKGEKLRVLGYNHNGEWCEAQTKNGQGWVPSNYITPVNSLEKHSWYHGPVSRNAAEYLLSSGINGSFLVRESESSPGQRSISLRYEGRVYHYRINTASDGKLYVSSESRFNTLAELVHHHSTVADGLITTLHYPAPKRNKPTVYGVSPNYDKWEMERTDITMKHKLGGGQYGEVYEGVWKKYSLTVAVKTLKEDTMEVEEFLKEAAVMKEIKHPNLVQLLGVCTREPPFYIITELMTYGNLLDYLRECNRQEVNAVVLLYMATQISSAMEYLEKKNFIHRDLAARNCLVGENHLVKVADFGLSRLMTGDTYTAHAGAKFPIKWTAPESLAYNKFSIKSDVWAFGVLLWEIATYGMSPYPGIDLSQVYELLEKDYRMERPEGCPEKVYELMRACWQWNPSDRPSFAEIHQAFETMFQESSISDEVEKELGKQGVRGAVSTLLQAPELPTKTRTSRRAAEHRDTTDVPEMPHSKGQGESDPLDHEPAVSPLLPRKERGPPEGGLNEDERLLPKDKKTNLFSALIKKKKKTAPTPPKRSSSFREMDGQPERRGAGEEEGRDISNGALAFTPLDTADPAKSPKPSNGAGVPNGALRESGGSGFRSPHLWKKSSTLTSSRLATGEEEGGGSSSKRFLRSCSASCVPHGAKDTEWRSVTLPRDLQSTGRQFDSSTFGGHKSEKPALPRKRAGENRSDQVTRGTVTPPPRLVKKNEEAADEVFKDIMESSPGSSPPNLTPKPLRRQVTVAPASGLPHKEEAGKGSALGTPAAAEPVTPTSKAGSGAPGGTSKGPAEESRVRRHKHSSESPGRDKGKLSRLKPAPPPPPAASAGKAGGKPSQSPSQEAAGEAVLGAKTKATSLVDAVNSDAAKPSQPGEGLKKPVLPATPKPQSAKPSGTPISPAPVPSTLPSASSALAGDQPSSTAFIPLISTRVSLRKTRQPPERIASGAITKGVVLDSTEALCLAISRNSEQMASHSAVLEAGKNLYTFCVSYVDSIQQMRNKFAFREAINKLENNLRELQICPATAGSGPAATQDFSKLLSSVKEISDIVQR

[9] = biological target: T3, Mitogen-activated protein kinase kinase kinase 13 (Homo sapiens) (UniProt O43283); assay: Selectivity interaction (Ambit KINOMEscan and KiNATiv profiling in Jurkat cells) EUB0000090b MAP3K13; assay type: cell-based; conditions: at 1 µM
T3 sequence (whole entry): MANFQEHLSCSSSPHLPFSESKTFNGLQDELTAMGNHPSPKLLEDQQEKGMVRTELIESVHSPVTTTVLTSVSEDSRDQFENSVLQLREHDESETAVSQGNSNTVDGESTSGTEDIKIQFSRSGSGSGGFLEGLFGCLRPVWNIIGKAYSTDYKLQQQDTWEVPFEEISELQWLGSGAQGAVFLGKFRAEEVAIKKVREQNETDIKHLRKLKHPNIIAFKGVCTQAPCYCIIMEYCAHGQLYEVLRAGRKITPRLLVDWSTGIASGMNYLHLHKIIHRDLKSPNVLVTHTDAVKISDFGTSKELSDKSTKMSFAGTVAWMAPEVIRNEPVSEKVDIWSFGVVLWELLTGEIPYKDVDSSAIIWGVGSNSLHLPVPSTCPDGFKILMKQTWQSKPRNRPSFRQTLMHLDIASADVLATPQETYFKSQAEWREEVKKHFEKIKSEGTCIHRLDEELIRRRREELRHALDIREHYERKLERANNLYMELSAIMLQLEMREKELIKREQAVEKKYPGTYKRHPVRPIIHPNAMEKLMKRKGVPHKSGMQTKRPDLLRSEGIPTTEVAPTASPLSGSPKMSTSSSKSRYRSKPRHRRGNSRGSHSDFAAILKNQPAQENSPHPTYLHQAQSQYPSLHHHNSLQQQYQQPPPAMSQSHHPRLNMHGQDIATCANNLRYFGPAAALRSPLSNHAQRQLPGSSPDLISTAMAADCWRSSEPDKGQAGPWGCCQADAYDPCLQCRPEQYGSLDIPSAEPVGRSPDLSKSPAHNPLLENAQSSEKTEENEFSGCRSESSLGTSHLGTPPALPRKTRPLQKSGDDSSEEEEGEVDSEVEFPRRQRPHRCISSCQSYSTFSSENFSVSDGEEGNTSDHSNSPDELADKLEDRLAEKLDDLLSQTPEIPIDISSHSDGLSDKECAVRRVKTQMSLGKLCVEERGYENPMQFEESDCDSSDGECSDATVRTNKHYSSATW

[10] = biological target: Serine/threonine-protein kinase SIK2 (Homo sapiens) (UniProt Q9H0K1); assay: Selectivity interaction (Ambit KINOMEscan and KiNATiv profiling in Jurkat cells) EUB0000090b SIK2; assay type: cell-based; conditions: at 1 µM
Serine/threonine-protein kinase SIK2 (Homo sapiens), sequence (Q9H0K1 whole entry, looked up): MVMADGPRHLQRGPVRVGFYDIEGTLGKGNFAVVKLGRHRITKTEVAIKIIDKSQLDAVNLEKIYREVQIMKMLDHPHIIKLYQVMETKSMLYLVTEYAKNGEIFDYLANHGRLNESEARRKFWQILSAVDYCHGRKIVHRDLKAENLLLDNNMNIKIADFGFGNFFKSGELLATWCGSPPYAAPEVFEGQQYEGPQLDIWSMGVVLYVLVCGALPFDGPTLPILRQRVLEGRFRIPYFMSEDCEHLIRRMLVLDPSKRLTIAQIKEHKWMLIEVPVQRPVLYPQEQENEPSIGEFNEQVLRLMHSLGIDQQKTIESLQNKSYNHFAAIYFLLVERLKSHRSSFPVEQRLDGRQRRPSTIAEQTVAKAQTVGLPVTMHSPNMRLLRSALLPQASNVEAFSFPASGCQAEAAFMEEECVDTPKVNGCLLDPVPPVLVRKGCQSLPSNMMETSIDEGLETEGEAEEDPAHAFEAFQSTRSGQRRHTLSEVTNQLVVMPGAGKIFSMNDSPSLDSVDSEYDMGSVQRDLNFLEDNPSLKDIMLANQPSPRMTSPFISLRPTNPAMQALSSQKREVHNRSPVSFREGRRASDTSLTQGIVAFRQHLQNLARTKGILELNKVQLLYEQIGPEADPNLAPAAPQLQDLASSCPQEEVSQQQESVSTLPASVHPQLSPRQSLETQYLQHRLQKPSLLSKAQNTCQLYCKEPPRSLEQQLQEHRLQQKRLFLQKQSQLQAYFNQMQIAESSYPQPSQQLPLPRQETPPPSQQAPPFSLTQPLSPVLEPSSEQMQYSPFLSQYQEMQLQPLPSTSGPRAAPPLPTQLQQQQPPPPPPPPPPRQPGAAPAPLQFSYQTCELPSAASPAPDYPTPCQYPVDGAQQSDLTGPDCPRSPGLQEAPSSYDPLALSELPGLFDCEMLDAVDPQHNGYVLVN

CCN(CC)CCCCNc1ncc2cc(-c3cc(OC)cc(OC)c3)c(NC(=O)NC(C)(C)C)nc2n1
% of control [1]: 100%

CC(C)(O)[C@H](F)CN1Cc2cc(NC(=O)c3cnn4cccnc34)c(N3CCOCC3)cc2C1=O
dTM [2]: 2.4 K

O=C(NOC[C@H](O)CO)c1ccc(F)c(F)c1Nc1ccc(I)cc1F
% of control [3]: 92%

CC(=O)Nc1cccc(-n2c(=O)n(C3CC3)c(=O)c3c(Nc4ccc(I)cc4F)n(C)c(=O)c(C)c32)c1
% of control [4]: 104%

CCc1cccc(CC)c1NC(=O)c1nn(C)c2c1CCc1cnc(Nc3ccc(C(=O)NC4CCN(C)CC4)cc3OC(F)(F)F)nc1-2
IC50 [5]: > 10 µM

CNC(=O)Nc1ccc(-c2nc(N3CC4CCC(C3)O4)c3cnn(C4CCC5(CC4)OCCO5)c3n2)cc1
% of inhibition [6]: -1%

Cc1cc(F)c(C(=O)Nc2cccc(-c3nncn3C(C)C)n2)cc1-n1cnc(C2CC2)c1
% of control [7]: 83%

C=CC(=O)Nc1cc(-n2c(=O)ccc3cnc4ccc(-c5ccc(NS(C)(=O)=O)cc5)cc4c32)ccc1C
% of control [8]: 100%

CN(C)C/C=C/C(=O)Nc1ccc(C(=O)N2CCCC(Nc3ncc(Cl)c(-c4c[nH]c5ccccc45)n3)C2)cc1 (stereo not given)
% of control [9]: 95%
% of control [10]: 93%
